The values below come from patent publication US5968907A (priority 1997, dated 1999).

Assay [1] deals with heat-labile enterotoxin from E. coli (Escherichia coli, UniProt P0CK94). The assay is classed as binding. Particulars: at the concentration employed in the assay.
A further assay deals with cholera toxin (Vibrio cholerae serotype O1, UniProt P01556). Nature of the assay: biochemical. Particulars: read-out: inhibition of binding of cholera toxin to ganglioside GD1b.
A further assay deals with CFA I pili (Escherichia coli, UniProt P0CK93+P25734). The experiment in a line: biochemical. To be noted: read-out: inhibition of CFA I pili binding to glycophorin.
Chain of CFA I pili (P0CK93 24-170): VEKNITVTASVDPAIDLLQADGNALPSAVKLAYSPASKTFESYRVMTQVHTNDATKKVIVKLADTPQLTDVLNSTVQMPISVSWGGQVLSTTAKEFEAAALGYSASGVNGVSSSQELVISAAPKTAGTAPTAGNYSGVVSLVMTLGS
Chain of CFA I pili (P25734 23-360): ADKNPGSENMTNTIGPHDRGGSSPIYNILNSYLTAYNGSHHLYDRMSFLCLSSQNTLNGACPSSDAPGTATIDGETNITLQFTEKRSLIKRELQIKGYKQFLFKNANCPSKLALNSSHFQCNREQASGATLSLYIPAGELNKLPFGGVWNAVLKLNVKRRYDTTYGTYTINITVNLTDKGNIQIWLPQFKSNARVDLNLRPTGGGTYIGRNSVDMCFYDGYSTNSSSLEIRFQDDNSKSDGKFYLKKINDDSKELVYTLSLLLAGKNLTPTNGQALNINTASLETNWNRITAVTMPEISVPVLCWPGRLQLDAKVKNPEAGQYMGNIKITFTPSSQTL

Chain of heat-labile enterotoxin from E. coli (P0CK94 whole entry, looked up): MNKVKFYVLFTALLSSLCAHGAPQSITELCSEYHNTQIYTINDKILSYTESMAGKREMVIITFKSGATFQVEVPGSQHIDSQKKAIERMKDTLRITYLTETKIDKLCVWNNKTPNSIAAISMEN
Chain of cholera toxin (P01556 22-124 limits assumed): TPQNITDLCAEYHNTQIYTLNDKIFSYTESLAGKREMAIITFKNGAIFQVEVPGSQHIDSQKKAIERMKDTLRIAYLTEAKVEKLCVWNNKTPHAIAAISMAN

Take `OC[C@H]1O[C@@H](SC2CCCC(O)C2)[C@H](O)[C@@H](O)[C@H]1O` (stereo partly drawn) [Example A10, 3-Hydroxycyclohex-1-yl 1-Thio-β-D-galactopyranoside]: in assay [1], the “inhibition of binding of heat-labile enterotoxin to ganglioside GD1b” value (shortened to “inhibition of binding … to ganglioside GD1b”) is “at least 20%”. Further, the inhibition (in general, the share of the control response that was lost under treatment) at 1000 µg/mL on cholera toxin was < 20%.

On to `NC1CCCC1S[C@@H]1O[C@H](CO)[C@H](O)[C@H](O)[C@H]1O` (stereo partly drawn) [Example B1, 2-Aminocyclopent-1-yl 1-Thio-β-D-galactopyranoside], for which the “inhibition of binding … to ganglioside GD1b” value in assay [1] was “at least 20%”. For the same molecule, on cholera toxin, the inhibition at 1000 µg/mL is < 20%.

For the molecule `NC1C2CCC(C2)C1CS[C@@H]1O[C@H](CO)[C@H](O)[C@H](O)[C@H]1O` (stereo partly drawn) [Example B4, (3-Aminonorborn-2-yl)methyl 1-Thio-β-D-galactopyranoside], the “inhibition of binding … to ganglioside GD1b” value in assay [1] is “at least 20%”. The inhibition at 1000 µg/mL on cholera toxin is < 20%. Take `NC1CCCCC(S[C@@H]2O[C@H](CO)[C@H](O)[C@H](O)[C@H]2O)C1` (stereo partly drawn) [Example B5, 3-Aminocyclohept-1-yl 1-Thio-β-D-galactopyranoside]: on CFA I pili, the inhibition at 1000 µg/mL fell in the range of 13 to 71%. On to `NC1CCC(S[C@@H]2O[C@H](CO)[C@H](O)[C@H](O)[C@H]2O)C1` (stereo partly drawn) [Example B7, 3-Aminocyclopent-1-yl 1-Thio-β-D-galactopyranoside], for which, in assay [1], the “inhibition of binding … to ganglioside GD1b” value is listed as “at least 20%”. Also, the inhibition at 1000 µg/mL on cholera toxin was ≥ 20%. Consider `NC1CCCC(S[C@@H]2O[C@H](CO)[C@H](O)[C@H](O)[C@H]2O)C1` (stereo partly drawn) [Example B10, 3-Aminocyclohex-1-yl 1-Thio-β-D-galactopyranoside], for which, in assay [1], the “inhibition of binding … to ganglioside GD1b” value is given as “at least 20%”. Further, the inhibition at 1000 µg/mL on cholera toxin is < 20%. For `CC(=O)NC1CCCCC(S[C@@H]2O[C@H](CO)[C@H](O)[C@H](O)[C@H]2O)C1` (stereo partly drawn) [Example C5, 3-Acetamidocyclohept-1-yl 1-Thio-β-D-galactopyranoside], in that order: “at least 20%” and ≥ 20%. In the same order, the values of `CC(=O)NC1CCC(S[C@@H]2O[C@H](CO)[C@H](O)[C@H](O)[C@H]2O)C1` (stereo partly drawn) [Example C7, 3-Acetamidocyclopent-1-yl 1-Thio-β-D-galactopyranoside] are “at least 20%” and ≥ 20%. For `CC(=O)NC1CCCC(S[C@@H]2O[C@H](CO)[C@H](O)[C@H](O)[C@H]2O)C1` (stereo partly drawn) [Example C10, 3-Acetamidocyclohexyl 1-Thio-β-D-galactopyranoside], in that order: < 20% and ≥ 20%. With `O=C(O)c1ccccc1C(=O)NC1CCCCC(S[C@@H]2O[C@H](CO)[C@H](O)[C@H](O)[C@H]2O)C1` (stereo partly shown) [Example D5, 3-(2-Carboxybenzamido)cyclohept-1-yl 1-Thio-βD-galactopyranoside], in assay [1], the “inhibition of binding … to ganglioside GD1b” value is given as “at least 20%”. Also, the inhibition at 1000 µg/mL on cholera toxin was ≥ 20%. For `O=C(O)CNC1CCCC1S[C@@H]1O[C@H](CO)[C@H](O)[C@H](O)[C@H]1O` (stereo partly drawn) [Example E1, Nα-[2-(1-Thio-β-D-galactopyranosyl)cyclopent-1-yl]glycine], in that order: “at least 20%” and ≥ 20%. In the same order, the values of `O=C(O)CCNC1CCCC1S[C@@H]1O[C@H](CO)[C@H](O)[C@H](O)[C@H]1O` (stereo partly drawn) [Example F1, Nβ-[2-(1-Thio-β-D-galactopyranosyl)cyclopent-1-yl]-β-alanin] are “at least 20%” and < 20%. Consider `O=C(O)CCNC1CCCCC(S[C@@H]2O[C@H](CO)[C@H](O)[C@H](O)[C@H]2O)C1` (stereo partly drawn) [Example F5, Nβ-[3-(1-Thio-β-D-galactopyranosyl)cyclohept-1-yl]-β-alanine], for which, in assay [1], the “inhibition of binding … to ganglioside GD1b” value was “at least 20%”. For the same molecule, at cholera toxin, the inhibition at 1000 µg/mL is < 20%. In the same order, the values of `O=C(O)CCNC1CCC(S[C@@H]2O[C@H](CO)[C@H](O)[C@H](O)[C@H]2O)C1` (stereo partly drawn) [Example F7, N-β-[3-(1-Thio-β-D-galactopyranosyl)cyclopent-1-yI]-β-alanine] are “at least 20%” and < 20%.

`O=C(O)CCNC1CCCC(S[C@@H]2O[C@H](CO)[C@H](O)[C@H](O)[C@H]2O)C1` (stereo partly drawn) [Example F10, Nβ-[3-(1-Thio-β-D-galactopyranosyl)cyclohex-1-yl]-β-alanine]: the “inhibition of binding … to ganglioside GD1b” value in assay [1] is “at least 20%”. Moreover, the inhibition at 1000 µg/mL at cholera toxin was < 20%. For `CC(C)C[C@H](NC1CCCCC1S[C@@H]1O[C@H](CO)[C@H](O)[C@H](O)[C@H]1O)C(=O)O` (stereo partly drawn) [Example G2, Nα-[2-(1-Thio-β-D-galactopyranosyl)cyclohex-1-yl]-L-leucine], in that order: < 20% and ≥ 20%.

With `CC(C)C[C@H](NC1CCCCC(S[C@@H]2O[C@H](CO)[C@H](O)[C@H](O)[C@H]2O)C1)C(=O)O` (stereo partly drawn) [Example G5, Nα-[1-(1-Thio-β-D-galactopyranosyl)cyclohept-3-yl]-L,Ieucine], the “inhibition of binding … to ganglioside GD1b” value in assay [1] is given as “at least 20%”. Also, on cholera toxin, the inhibition at 1000 µg/mL was ≥ 20%.

Regarding `O=C(O)[C@H](Cc1c[nH]cn1)NC1CCCCC1S[C@@H]1O[C@H](CO)[C@H](O)[C@H](O)[C@H]1O` (stereo partly drawn) [Example H2, Nα-[2-(1-Thio-β-D-galactopyranosyl)cyclohex-1-yl]-L-histidine], the inhibition at 1000 µg/mL at cholera toxin is < 20%; on CFA I pili, 13 to 71%. Consider `CC(CC(S[C@@H]1O[C@H](CO)[C@H](O)[C@H](O)[C@H]1O)c1ccccc1)N[C@@H](Cc1c[nH]cn1)C(=O)O` (stereo partly drawn) [Example H3, Nα-[4-Phenyl-4-(1-thio-β-D-galactopyranosyl)but-2-yl]-L-histidine], for which the inhibition at 1000 µg/mL is ≥ 20% at cholera toxin and 13 to 71% on CFA I pili.

`CC1(C)CC(N[C@@H](Cc2c[nH]cn2)C(=O)O)CC1S[C@@H]1O[C@H](CO)[C@H](O)[C@H](O)[C@H]1O` (stereo partly drawn) [Example H6, Nα-[4,4-Dimethyl-3-(1-thio-β-D-galactopyranosyl)-cyclopent-1-yl]-L-histidine]: the inhibition at 1000 µg/mL at CFA I pili was in the range of 13 to 71%. On the same count and under the same terms, with `O=C(O)[C@H](Cc1c[nH]cn1)NC1CCC(S[C@@H]2O[C@H](CO)[C@H](O)[C@H](O)[C@H]2O)C1` (stereo partly drawn) [Example H7, Nα-[3-(1-Thio-β-D-galactopyranosyl)cyclopent-1-yl]-L-histidine] the figure was 13 to 71%. Regarding `O=C(O)[C@H](Cc1c[nH]c2ccccc12)NC1CCCCC(S[C@@H]2O[C@H](CO)[C@H](O)[C@H](O)[C@H]2O)C1` (stereo partly drawn) [Example I5, Nα-[3-(1-Thio-β-D-galactopyranosyl)cyclohept-1-yl]-L-tryptophan], in assay [1], the “inhibition of binding … to ganglioside GD1b” value is “at least 20%”. Further, the inhibition at 1000 µg/mL on cholera toxin is ≥ 20%. In the same order, the values of `N=C(N)NCCC[C@H](NC1CCC(S[C@@H]2O[C@H](CO)[C@H](O)[C@H](O)[C@H]2O)C1)C(=O)O` (stereo partly drawn) [Example J7, Nα-[3-(1-Thio-β-D-galactopyranosyl)cyclopent-1-yl]-L-arginine] are “at least 20%” and < 20%.
